Measurements reported in PubChem BioAssay (NCI).
Values joined by “and” are separate entries in the source; they are usually repeats but may differ in a detail not shown here. Equal entries are not always repeated.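 These data come from cells grown in 96-well plates and exposed to compound for 48 hours at five concentrations. Abbreviation: GI50, concentration required for 50% inhibition of growth. TGI is the concentration that stops growth completely.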

Assays:
Assay in all cases: inhibition of tumour cell growth, NCI panel, 48 h
CCRF-CEM leukemia = test system: CCRF-CEM leukemia
DU-145 prostate = test system: DU-145 prostate
HOP-92 NSCLC = test system: HOP-92 NSCLC
IGROV1 ovarian = test system: IGROV1 ovarian
M14 melanoma = test system: M14 melanoma
MCF7 breast = test system: MCF7 breast
NCI-H460 lung = test system: NCI-H460 lung
OVCAR-8 ovarian = test system: OVCAR-8 ovarian
SF-295 CNS = test system: SF-295 CNS
SK-MEL-28 melanoma = test system: SK-MEL-28 melanoma

| Compound | GI50 (CCRF-CEM leukemia) | TGI (CCRF-CEM leukemia) | GI50 (DU-145 prostate) | TGI (DU-145 prostate) | GI50 (HOP-92 NSCLC) | TGI (HOP-92 NSCLC) | GI50 (IGROV1 ovarian) | TGI (IGROV1 ovarian) | GI50 (M14 melanoma) | TGI (M14 melanoma) | GI50 (MCF7 breast) | TGI (MCF7 breast) | GI50 (NCI-H460 lung) | TGI (NCI-H460 lung) | GI50 (OVCAR-8 ovarian) | TGI (OVCAR-8 ovarian) | GI50 (SF-295 CNS) | TGI (SF-295 CNS) | GI50 (SK-MEL-28 melanoma) | TGI (SK-MEL-28 melanoma) |
| --- | --- | --- | --- | --- | --- | --- | --- | --- | --- | --- | --- | --- | --- | --- | --- | --- | --- | --- | --- | --- |
| COc1cccc(-c2nn(-c3ccccc3)cc2-c2ccnc(NCCNS(=O)(=O)c3ccc(C(F)(F)F)cc3)c2)c1 | 2.34 µM | > 100 µM | 5.09 µM | > 100 µM | 2.12 µM | 6.83 µM | 4.19 µM | > 100 µM | 3.8 µM | > 100 µM | 3.15 µM | 39.1 µM | 3.47 µM | > 100 µM | 4.07 µM | 46.2 µM | 2.91 µM | 8.67 µM | 5.66 µM | > 100 µM |
| CC1(C)SC2C(C(=O)O)N=C(Cc3ccccc3)N2C1C(=O)O (configuration not stated) | – | – | – | > 100 µM | – | > 100 µM | – | > 100 µM | – | > 100 µM | – | > 100 µM | – | > 100 µM | – | > 100 µM | – | > 100 µM | – | > 100 µM |
| O=S(=O)(NCCNc1cc(-c2cn(-c3ccccc3)nc2-c2cccc(O)c2)ccn1)c1ccc(C(F)(F)F)cc1 | 3.27 µM | 8.05 µM | 4.44 µM | 15.9 µM | 1.97 µM | 6.39 µM | 2.36 µM | 5.89 µM | 2.12 µM | 7.17 µM | 2.29 µM | 9.78 µM | 3.23 µM | 10.1 µM | 4.91 µM | 26.1 µM | – | – | 2.71 µM | 9.83 µM |
| CCN1C(=O)N(CC)C2C1NN=c1s/c(=C3\C(=O)N(CCC(C)C)c4ccccc43)c(=O)n12 (configuration not stated) | 2.66 µM | > 100 µM | 2.91 µM | 9.33 µM | 1.47 µM | 5.83 µM | 1.23 µM | 6.63 µM | – | – | 0.412 µM | 41.9 µM | – | – | – | – | 1.34 µM | 3.86 µM | 2.58 µM | > 100 µM |
| COc1cc2c(c(OC)c1OC)-c1ccc([O-])c(=O)cc1[C@@H](NC(C)=O)CC2.COc1cc2c(c(OC)c1OC)-c1ccc([O-])c(=O)cc1[C@@H](NC(C)=O)CC2.[Cu+2] | 3.33 µM | 19 µM | 2.7 µM | 7.21 µM | 17.5 µM | > 100 µM | 5.59 µM | 47.1 µM | 2.79 µM | > 100 µM | 3.33 µM | > 100 µM | 3.29 µM | 15.7 µM | 3.77 µM | 34.5 µM | 3.1 µM | > 100 µM | 7.82 µM | > 100 µM |
| CCCCCCCC1c2cc3[nH]c(cc4nc(cc5[nH]c(cc(n2)[C@@]1(C)CC(=O)N(C)C)c(C)c5CCC(=O)O)C(CCC(=O)O)=C4C)cc3C (some centres not stated) | – | 42.6 µM | – | 57 µM | – | 43.8 µM | – | 39.6 µM | – | 29.8 µM | – | 92.3 µM | – | 43.8 µM | – | – | – | 37.5 µM | – | 35.8 µM |
| CN1CCN(C(=O)c2ccc(NC(=O)Nc3ccc(N(C)c4ccnc(Nc5ccc(CS(C)(=O)=O)cc5)n4)cc3)cc2)CC1 | 7.07 µM | > 25 µM | 8.78 µM | > 25 µM | > 25 µM | > 25 µM | > 16.4 µM | > 25 µM | > 23.2 µM | > 25 µM | 7.41 µM | > 25 µM | 11.8 µM | > 25 µM | 7.22 µM | > 24 µM | > 22.5 µM | > 25 µM | > 25 µM | > 25 µM |
| O=C1C(=O)c2cc([N+](=O)[O-])ccc2-c2ccccc21 | – | – | 1.74 µM | 3.16 µM | 1.66 µM | 3.12 µM | 1.9 µM | 3.54 µM | 1.97 µM | 3.5 µM | 1.82 µM | 3.64 µM | 1.78 µM | 3.35 µM | 1.71 µM | 3.6 µM | 1.86 µM | 3.48 µM | 1.73 µM | 3.11 µM |
| CNC(=O)c1ccc(Nc2ncc(C(F)(F)F)c(NCc3nccnc3N(C)S(C)(=O)=O)n2)cc1 | 3.27 µM and 3.21 µM and 3.36 µM | – | 2.6 µM and 2.1 µM and 2.75 µM | > 10 µM and 10.9 µM and 15.9 µM | – | 2.37 µM and 6.54 µM and 6.4 µM | 0.881 µM and 1.81 µM and 1.64 µM | > 10 µM and 12 µM and 13.1 µM | 2 µM and 2.27 µM and 1.98 µM | > 10 µM and 11.6 µM and 19 µM | 1.79 µM and 2.16 µM and 1.88 µM | > 10 µM and 9.76 µM and 11.4 µM | 2.05 µM and 2.75 µM and 2.16 µM | > 10 µM and 10.2 µM and 11.1 µM | 3.44 µM and 3.69 µM and 3.83 µM | > 10 µM and 13.6 µM and 18 µM | 3.04 µM and 2.6 µM and 2.61 µM | > 10 µM and 10.9 µM and 12.9 µM | 3.96 µM and 2.88 µM and 2.64 µM | > 10 µM and 9.49 µM and 9.43 µM |
| CCC1CCc2nc3sc(C(=O)Nc4ccccc4F)c(N)c3cc2C1 (configuration not stated) | 1.72 µM | > 100 µM | 2.82 µM | > 100 µM | 4 µM | > 100 µM | > 100 µM | > 100 µM | – | – | 0.318 µM | > 100 µM | 2.71 µM | > 100 µM | > 100 µM | > 100 µM | 0.669 µM | > 100 µM | 11.3 µM | > 100 µM |
| O=C(OC(C(=O)O)C(OC(=O)c1ccccc1)C(=O)O)c1ccccc1 (configuration not stated) (tested in a mixture with another compound) | – | > 100 µM | – | > 100 µM | – | 55.9 µM | – | > 100 µM | – | > 100 µM | – | > 100 µM | – | > 100 µM | – | > 100 µM | – | > 100 µM | – | > 100 µM |
| O=C1C2CC3C(CC2C(=O)[N]1[Sn]([c]1ccccc1)([c]1ccccc1)[c]1ccccc1)C1(Cl)C(Cl)=C(Cl)C3(Cl)C1(Cl)Cl (configuration not stated) | 0.0645 µM | 0.371 µM | 0.0701 µM | 0.2 µM | 0.0529 µM | 0.221 µM | 0.115 µM | 0.334 µM | 0.15 µM | 0.345 µM | 0.0376 µM | 0.154 µM | – | – | 0.155 µM | 0.375 µM | 0.212 µM | 0.455 µM | 0.144 µM | 0.295 µM |
| Cc1cc(N(CCOS(C)(=O)=O)CCOS(C)(=O)=O)ccc1C=Nc1ccc(-c2csc(-c3ccccc3)n2)c(Cl)c1 | – | 23.3 µM | – | 35.6 µM | – | 27.6 µM | – | 32.2 µM | – | 43.1 µM | – | > 58.9 µM | – | 7.01 µM | – | > 84.2 µM | – | 29.8 µM | – | > 62.4 µM |
| COc1ccc(C(=O)/C=C/c2cc3ccccc3[nH]c2=O)cc1 | 22.3 µM | > 100 µM | 17.8 µM | 41.9 µM | 17 µM | 37.3 µM | 28.6 µM | 97.6 µM | 19.3 µM | 47.2 µM | 18.8 µM | > 96.1 µM | 19.8 µM | > 43.4 µM | 21.7 µM | > 100 µM | 20.3 µM | > 57.1 µM | 33.9 µM | > 67.4 µM |
